Data on 17 compounds can be found in US5541163A, “Renin inhibiting N-(2-amino-2-oxoethyl)butanediamide derivatives” (Bio-Mega/Boehringer Ingelheim Research Inc., priority 1993, dated 1996).

A word on the IC50: it is the point on the concentration scale where inhibition reaches its midpoint. Low values mean higher potency, high ones lower potency.

The assay concerns the target T1, human renin (Homo sapiens, UniProt P00797).
T1 construct: A human plasma pool is used as the source of both the substrate (angiotensinogen) and the enzyme (renin); from tissue; host or cells: human plasma pool
T1 sequence (P00797 67-406): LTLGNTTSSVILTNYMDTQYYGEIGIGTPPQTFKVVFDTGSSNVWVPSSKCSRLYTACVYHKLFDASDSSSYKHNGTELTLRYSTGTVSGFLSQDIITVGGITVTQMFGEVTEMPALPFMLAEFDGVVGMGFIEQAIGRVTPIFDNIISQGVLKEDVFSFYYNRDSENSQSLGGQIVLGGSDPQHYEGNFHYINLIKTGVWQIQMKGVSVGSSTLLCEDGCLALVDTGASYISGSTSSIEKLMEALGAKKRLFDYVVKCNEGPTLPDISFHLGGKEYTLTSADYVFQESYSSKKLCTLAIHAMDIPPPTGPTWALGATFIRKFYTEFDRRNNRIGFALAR
Nature of the assay: Plasma renin assay (inhibition of human renin, angiotensin I by RIA). It is filed as biochemical. The note with it: human plasma pool, pH 6.0, 2 h incubation at 37°. A digest of the protocol: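 Pooled human plasma supplies both renin and angiotensinogen; inhibitor in MES/1% HSA buffer (1% DMSO final) incubated 2 h at 37° at pH 6.0. Angiotensin I generated quantified by radioimmunoassay, inhibition relative to no-inhibitor control, IC50 by nonlinear regression.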
Turning to `CC(C)CC[C@H](O)[C@H](CC1CCCCC1)NC(=O)[C@@H](CC(=O)N(CC(=O)N(C)CCc1ccccn1)CC1CCCCC1)Cc1csc(N)n1` [Compound 77, N^4-(cyclohexylmethyl)-N^4 -{2-{methyl[2-(2-pyridinyl)ethyl]-amino}-2-oxoethyl}-N^1-[1(S)-(cyclohexylmethyl)-2(S)-hydroxy-5-methylhexyl]-2(R)-[(2-amino-4-thiazolyl)methyl]butanediamide], the midpoint of inhibition, the IC50, lay at 36 nM.
In the case of `CC(C)C[C@H](O)[C@H](O)[C@H](CC1CCCCC1)NC(=O)[C@@H](CC(=O)N(CC(=O)N(C)C)CC1CCCCCC1)Cc1csc(N)n1` [Compound 78, N^4-(cycloheptylmethyl)-N^4-[2-(dimethylamino)-2-oxoethyl]-N^1-[1(S)-(cyclohexylmethyl)-2(R),3(S)-dihydroxy-5-methylhexyl]-2(R)-[(2-amino-4-thiazolyl)methyl]butanediamide] it was 0.6 nM.
In the case of `CC(C)C[C@H](O)[C@H](O)[C@H](CC1CCCCC1)NC(=O)[C@@H](CC(=O)N(CC(=O)N(C)CCc1ccccn1)Cc1ccco1)Cc1csc(N)n1` [Compound 79, N^4-(2-furanylmethyl)-N^4 -{2-{methyl-[2-(2-pyridinyl)ethyl)amino}-2-oxoethyl}-N^1-[1(S)-(cyclohexylmethyl)-2(R),3(S)-dihydroxy-5-methylhexyl]-2(R)-[(2-amino-4-thiazolyl)-methyl]butanediamide] it was 1 nM; in that of `CC(C)C[C@H](O)[C@H](O)[C@H](CC1CCCCC1)NC(=O)[C@@H](CC(=O)N(CC(=O)N1CCOCC1)CC1CCCC1)Cc1csc(N)n1` [Compound 80, N^4-(cyclopentylmethyl)-N^4-(2-morpholino-2-oxoethyl)-N^1-[1(S)-(cyclohexylmethyl)-2(R),3(S)-dihydroxy-5-methylhexyl]-2(R)-[(2-amino-4-thiazolyl)methyl]butanediamide], 2 nM.
For the compound `CC(C)C[C@H](O)[C@H](O)[C@H](CC1CCCCC1)NC(=O)[C@@H](CC(=O)N(CC(=O)N(C)CCc1ccccn1)CC1CCCCCC1)Cc1csc(N)n1` [Compound 81, N^4-(cycloheptylmethyl)-N^4 -{2-{methyl[2-(2-pyridinyl)ethyl]amino}-2-oxoethyl}-N^1-[1(S)-(cyclohexylmethyl)-2(R),3(S)-dihydroxy-5-methylhexyl]-2(R)-[(2-amino-4-thiazolyl)-methyl]butanediamide], the IC50 stood at 1 nM.
The compound `CC(C)C[C@H](O)[C@H](O)[C@H](CC1CCCCC1)NC(=O)[C@@H](CC(=O)N(CC(=O)N(C)CCc1ccccn1)Cc1ccccc1F)Cc1csc(N)n1` [Compound 82, N^4-[(2-fluorophenyl)methyl]-N^4 -{2-{methyl[2-(2-pyridinyl)ethyl]-amino}-2-oxoethyl}-N^1-[1(S)-(cyclohexylmethyl)-2(R),3(S)-dihydroxy-5-methylhexyl]-2(R)-[(2-amino-4-thiazolyl)methyl]butanediamide] gave an IC50 of 3 nM.
In turn, `CC(C)C[C@H](O)[C@H](O)[C@H](CC1CCCCC1)NC(=O)[C@@H](CC(=O)N(CC(=O)N(C)CCN(C)C(=O)N1CCOCC1)CC1CCCCC1)Cc1csc(N)n1` [Compound 83, N^4-(cyclohexylmethyl)-N^4 -{2-{methyl{2-[methyl(morpholinocarbonyl)-amino]ethyl}amino}-2-oxoethyl}-N^1-[1(S)-(cyclohexylmethyl)-2(R),3(S)-dihydroxy-5-methylhexyl]-2(R)-[(2-amino-4-thiazolyl)methyl]butanediamide] had an IC50 of 0.35 nM.
In the case of `CCC(CC)CN(CC(=O)N(C)CCc1ccccn1)C(=O)C[C@@H](Cc1csc(N)n1)C(=O)N[C@@H](CC1CCCCC1)[C@@H](O)[C@@H](O)CC(C)C` [Compound 84, N^4-(2-ethylbutyl)-N^4 -{2-{methyl[2-(2-pyridinyl)ethyl]amino}-2-oxoethyl}-N^1-[1(S)-(cyclohexylmethyl)-2(R),3(S)-dihydroxy-5-methylhexyl]-2(R)-[(2-amino-4-thiazolyl)methyl]-butanediamide] it was 3 nM.
`CC(C)C[C@H](O)[C@H](O)[C@H](CC1CCCCC1)NC(=O)[C@@H](CC(=O)N(CC(=O)N(C)C)CC1CCCC1)Cc1csc(N)n1` [Compound 85, N^4-(cyclopentylmethyl)-N^4-[2-(dimethylamino)-2-oxoethyl]-N^1-[1(S)-(cyclohexylmethyl)-2(R),3(S)-dihydroxy-5-methylhexyl]-2(R)-[(2-amino-4-thiazolyl)methyl]butanediamide]: the IC50 amounted to 1 nM.
`CC(C)C[C@H](O)[C@H](O)[C@H](CC1CCCCC1)NC(=O)[C@@H](CC(=O)N(CC(=O)N(C)CCc1ccccn1)Cc1nccs1)Cc1csc(N)n1` [Compound 86, N^4 -{2-{methyl[2-(2-pyridinyl)ethyl]-amino}-2-oxoethyl}-N^4-(2-thiazolylmethyl)-N^1-[1(S)-(cyclohexylmethyl)-2(R),3(S)-dihydroxy-5-methylhexyl]-2(R)-[(2-amino-4-thiazolyl)methyl]-butanediamide] returned an IC50 of 6 nM.
`CC(C)C[C@H](O)[C@H](O)[C@H](CC1CCCCC1)NC(=O)[C@@H](CC(=O)N(CCC1CCCC1)CC(=O)N(C)CCc1ccccn1)Cc1csc(N)n1` [Compound 87, N^4-(2-cyclopentylethyl)-N^4 -{2-{methyl[2-(2-pyridinyl)ethyl]amino}-2-oxoethyl}-N^1-[1(S)-(cyclohexylmethyl)-2(R),3(S)-dihydroxy-5-methylhexyl]-2(R)-[(2-amino-4-thiazolyl)-methyl]butanediamide] had an IC50 of 2 nM.
In the case of `Cc1ccsc1CN(CC(=O)N(C)CCc1ccccn1)C(=O)C[C@@H](Cc1csc(N)n1)C(=O)N[C@@H](CC1CCCCC1)[C@@H](O)[C@@H](O)CC(C)C` [Compound 88, N^4 -{2-{methyl[2-(2-pyridinyl)ethyl]-amino}-2-oxoethyl}-N^4-[(3-methyl-2-thienyl)methyl]-N^4-[1(S)-(cyclohexylmethyl)-2(R),3(S)-dihydroxy-5-methylhexyl]-2(R)-[(2-amino-4-thiazolyl)methyl]butanediamide] it was 4 nM; in that of `CC(C)C[C@H](O)[C@H](O)[C@H](CC1CCCCC1)NC(=O)[C@@H](CC(=O)N(CC(=O)N(C)CCc1ccccn1)Cc1ccoc1)Cc1csc(N)n1` [Compound 89, N^4-(3-furanylmethyl)-N^4 -{2-{methyl-[2-(2-pyridinyl)ethyl]amino}-2-oxoethyl}-N^1-[1(S)-(cyclohexylmethyl)-2(R),3(S)-dihydroxy-5-methylhexyl]-2(R)-[(2-amino-4-thiazolyl)-methyl]butanediamide], 3 nM.
In the case of `CC(C)C[C@H](O)[C@H](O)[C@H](CC1CCCCC1)NC(=O)[C@@H](CC(=O)N(CC(=O)N(C)CCN1CCOCC1)CC1CCCCC1)Cc1csc(N)n1` [Compound 90, N^4-(cyclohexylmethyl)-N^4 -{2-{methyl-(2-morpholinoethyl)amino]-2-oxoethyl}-N^1-[(S)-(cyclohexylmethyl)-2(R),3(S)-dihydroxy-5-methylhexyl]-2(R)-[(2-amino-4-thiazolyl)methyl]-butanediamide] it was 0.5 nM; in that of `CCCC(CCC)N(CC(=O)N(C)CCc1ccccn1)C(=O)C[C@@H](Cc1csc(N)n1)C(=O)N[C@@H](CC1CCCCC1)[C@@H](O)[C@@H](O)CC(C)C` [Compound 91], 8 nM.
In the case of `CCCC(CCC)CN(CC(=O)N(C)CCc1ccccn1)C(=O)C[C@@H](Cc1csc(N)n1)C(=O)N[C@@H](CC1CCCCC1)[C@@H](O)[C@@H](O)CC(C)C` [Compound 92, N^4 -{2-{methyl[2-(2-pyridinyl)ethyl]-amino}-2-oxoethyl}-N^4-(2-propylpentyl)-N^1-[1(S)-(cyclohexylmethyl)-2(R),3(S)-dihydroxy-5-methylhexyl]-2(R)-[(2-amino-4-thiazolyl)methyl]-butanediamide] it was 5 nM; in that of `CC(C)C[C@H](O)[C@H](O)[C@H](CC1CCCCC1)NC(=O)[C@@H](CC(=O)N(CC(=O)N(C)CCN1CCOCC1)[C@@H](C)c1ccccc1)Cc1csc(N)n1` [Compound 93, N^4 -{2-[methyl(2-morpholinoethyl)-amino]-2-oxoethyl}-N^4-[1(S)-phenylethyl]-N^1-[1(S)-(cyclohexylmethyl)-2(R),3(S)-dihydroxy-5-methylhexyl]-2(R)-[(2-amino-4-thiazolyl)methyl]-butanediamide], 2 nM.
